Results on two compounds are retold here after patent US20260337245A1, “POLYPEPTIDE OR ANALOG THEREOF AND USE THEREOF” (Shenzhen Bay Laboratory, priority 2024, published 2026).

Starred links: 1 amine or outer side, 2 acyl side, 3 side chain; linkers in the order of their positions; H or OH if unused. Positions of bridges follow the written chain, without caps; N, C: chain ends. Non-standard residues stand in square brackets, D forms with d. Residues, ends and D or L forms follow the SMILES beside them. X1 = O=C(O)CCCCCCCCCCCCCCCCCCC(=O)N[C@@H](CCCCNC(=O)COCCOCCNC(=O)COCCOCCNC(=O)CCC(=O)N(CCNC(=O)C[*:1])CCNC(=O)C[*:2])C(=O)O; Hyp = O=C(O)[C@@H]1C[C@@H](O)CN1; αMeK = C[C@](N)(CCCCN)C(=O)O; Aib = CC(C)(N)C(=O)O

The nature of data set [1]: Pharmacokinetic evaluation in SD rats. Particulars: plasma, rat. The data set is classed as in vivo, male SD rat. How it is done: 1. The pharmacokinetic behaviors of the polypeptide derivatives (i.e., AMY-001 to AMY-041) prepared in Example 1 and Example 2 in SD rats were tested.
Each polypeptide derivative (i.e., AMY-001 to AMY-041) was administered to male SD rat as a single injection via subcutaneous injection (SC, 3 mg/kg, with PBS as a medicament vehicle, a concentration of 1.5 mg/mL, and an administration volume of 2 mL) and intravenous injection (IV, 1 mg/kg, with PBS as a medicament vehicle, a concentration of 0.5 mg/mL, and an administration volume of 2 mL), respectively. After administration, whole blood samples were respectively collected from the jugular vein or other appropriate veins at selected time points. 0.2 mL of blood was collected and placed in a labeled EDTA-K2 anticoagulant tube. The tube was gently inverted up and down to ensure thorough mixing of the anticoagulant (EDTA-K2) with the blood, immediately placed on wet ice and centrifuged as soon as possible to separate plasma, and the centrifugation conditions were set to 4° C., 6800 g, and 6 minutes. Plasma samples were stored in a refrigerator at a temperature not exceeding −20° C. until subsequent analysis.
(§1) Under yellow light conditions in an ice water bath, (1) except for the blank sample, 300 μL of precipitant containing internal standard was added to a 96-well plate containing 20 μL of a standard curve sample, a quality control sample or an unknown sample; 300 μL of acetonitrile was added to the blank sample; (2) vortex mixing; (3) centrifugation; (4) 150 μL of supernatant was taken and added into a new 96-well plate, and then mixed well with 150 μL of ultrapure water; and (5) The above samples were quantitatively analyzed by using LC-MS analysis. Gradient elution was performed on a XB—C18 chromatographic column (2.1*100 mm, 3 μm), with the mobile phase as follows: mobile phase A=0.1% (volume percentage, v/v) formic acid-water; and mobile phase B=acetonitrile. Pharmacokinetic parameters were calculated using Phoenix WinNonlin software.

A short description of data set [2]: Pharmacokinetic evaluation in Cynomolgus macaques. In kind it is in vivo, adult male Cynomolgus macaques. Particulars: cynomolgus monkey, plasma, 0.2 mg/kg. The method, then: 2. The pharmacokinetic behaviors of the polypeptide derivatives (i.e., AMY-001 to AMY-041) prepared in Example 1 and Example 2 in Cynomolgus macaques were tested.
Each polypeptide derivatives (i.e., AMY-001 to AMY-041) was respectively administered to adult male Cynomolgus macaques as a single injection via subcutaneous injection (S.C., 0.2 mg/kg, with PBS as a medicament vehicle, a concentration of 0.2 mg/mL, […], with PBS as a medicament vehicle, a concentration of 0.2 mg/mL, and an administration volume of 1 mL), respectively. After administration, whole blood samples were respectively collected from the jugular vein or other appropriate veins at selected time points. 0.2 mL of blood was collected and placed in a labeled EDTA-K2 anticoagulant tube. The tube was gently inverted up and down to ensure thorough mixing of the anticoagulant (EDTA-K2) with the blood, immediately placed on wet ice and centrifuged as soon as possible to separate plasma, and the centrifugation conditions were set to 4° C., 6800 g, and 6 minutes. Plasma samples were stored in a refrigerator at a temperature not exceeding −20° C. for subsequent analysis.
as §1, with “the” for “The”, “A=0.1%” for “A=0.1% (volume percentage, v/v)”

The conditions of data set [3]: background, in words; cited from earlier work.
The conditions of data set [4]: background, in words; cited from earlier work. This is another data set of the same source.

In data set [1] (1 mg/kg, IV (1 mpk)), `CC(=O)N[C@@H](C)C(=O)N[C@@H](CO)C(=O)N[C@@H](Cc1c[nH]cn1)C(=O)N[C@@H](CC(C)C)C(=O)N[C@@H](CO)C(=O)N[C@H](C(=O)N[C@@H](C)C(=O)N[C@H]1CSCC(=O)NCCN(C(=O)CCC(=O)NCCOCCOCC(=O)NCCOCCOCC(=O)NCCCC[C@H](NC(=O)CCCCCCCCCCCCCCCCCCC(=O)O)C(=O)O)CCNC(=O)CSC[C@@H](C(=O)N[C@@H](CC(C)C)C(=O)N[C@@H](Cc2c[nH]cn2)C(=O)N[C@@](C)(CCCCN)C(=O)N[C@@H](CC(C)C)C(=O)NC(C)(C)C(=O)N[C@@H](CC(=O)O)C(=O)N[C@@H](Cc2ccc(O)cc2)C(=O)N2CCC[C@H]2C(=O)N[C@@H](CCC(N)=O)C(=O)N[C@H](C(=O)N[C@@H](CC(=O)O)C(=O)N[C@H](C(=O)NCC(=O)N[C@@H](C)C(=O)NCC(=O)N[C@@H](CO)C(=O)N2C[C@H](O)C[C@H]2C(N)=O)C(C)C)[C@@H](C)O)NC(=O)[C@H](C)NC(=O)[C@H](CO)NC(=O)[C@H](CC(C)C)NC(=O)[C@H](CCCNC(=N)N)NC(=O)CNC(=O)[C@H](CC(C)C)NC1=O)[C@@H](C)O` [AMY-015, Ac-ASHLSTACLGRLSACLH-(αMeK)-L-Aib-DYPQTDVGAGS-Hyp-NH2] (Ac-ASHLSTACLGRLSACLH[αMeK]L[Aib]DYPQTDVGAGS[Hyp]-NH2; linker 8-15 via X1) gave an AUC(0-inf) of 286 µg·h/mL, a clearance of 3.52 mL/h/kg and a half-life of 20.5 h. In data set [1] (3 mg/kg, SC (3 mpk)), the AUC(0-inf) was 567 µg·h/mL, the highest level (Cmax) was 11100 ng/mL, the Tmax came out at 24 h and the bioavailability turned out to be 66.1%. The half-life in data set [1] (3 mg/kg, SC (3 mpk)) is 20.6 h. For the same compound, in data set [2] (IV (0.2 mpk)), the AUC(0-inf) stood at 942 µg·h/mL, the clearance was 0.217 mL/h/kg and the half-life was 146 h. Moreover, in data set [2] (SC (0.2 mpk)), the AUC(0-inf) was found to be 514 µg·h/mL, the Cmax was 2260 ng/mL, the Tmax was found to be 24 h and the bioavailability was 54.5%. The same compound had a half-life in data set [2] (SC (0.2 mpk)) of 143 h.

Turning to `CC(C)C[C@H](NC(=O)[C@H](CCCCN)NC(=O)CNC(=O)[C@H](CC(C)C)NC(=O)[C@@H](NC(=O)[C@@H]1CSSC[C@H](N)C(=O)N[C@@H](CO)C(=O)N[C@@H](CC(N)=O)C(=O)N[C@@H](CC(C)C)C(=O)N[C@@H](CO)C(=O)N[C@@H]([C@@H](C)O)C(=O)N1)C(C)C)C(=O)N[C@@H](CO)C(=O)N[C@@H](CCC(N)=O)C(=O)N[C@@H](CCC(=O)O)C(=O)N[C@@H](CC(C)C)C(=O)N[C@@H](Cc1c[nH]cn1)C(=O)N[C@@H](CCCCN)C(=O)N[C@@H](CC(C)C)C(=O)N[C@@H](CCC(N)=O)C(=O)N[C@H](C(=O)N[C@@H](Cc1ccc(O)cc1)C(=O)N1CCC[C@H]1C(=O)N[C@@H](CCCNC(=N)N)C(=O)N[C@H](C(=O)N[C@@H](CC(N)=O)C(=O)N[C@H](C(=O)NCC(=O)N[C@@H](CO)C(=O)NCC(=O)N[C@H](C(=O)N1CCC[C@H]1C(N)=O)[C@@H](C)O)[C@@H](C)O)[C@@H](C)O)[C@@H](C)O` [sCT], the in-vivo half-life result in data set [3] is “short in-vivo half-life”. Besides, the stability result in data set [4] is reported as “poor stability”.

In general, AUC(0-inf) refers to the area under the concentration-time curve extrapolated to infinity. Lower therefore signals less exposure. In general, clearance refers to the volume of plasma or blood freed of the substance per unit of time. Low readings indicate a low capacity for elimination, high ones a high capacity for elimination. The half-life is the time in which the quantity being followed falls by half. For orientation: Cmax means the maximum level reached in the sampled fluid or tissue. In general, Tmax refers to the time from dosing to the highest level. The term bioavailability denotes the share of a dose that reaches the circulation, judged against a reference dose that is usually intravenous. Lower therefore signals poor availability.
